Reference: PubChem BioAssay AID1963865 (Molecular Pharmacology Branch, DTP, NCI, 2024)

Tested on: KRAS PDC multicell spheroid viability
Assay: Anticancer human tumor 825966-067-R-J1-PDC patient-derived colon carcinoma cell line growth inhibition [KRAS2]
Details: for IC50: curve of first compound; for viability, T/C: stronger effect = lower value
Summary of the method: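 Combination screen of spheroid viability in tumor-cell co-cultures with endothelial (HUVEC) and mesenchymal stem cell stroma. Each agent was tested in half-log dilutions, topping at clinical Cmax or at 10 microM without a known Cmax.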

[1] = second compound 0.1 µM, first compound 0.0316 µM
[2] = second compound 0.1 µM, first compound 0.1 µM
[3] = second compound 0.1 µM, first compound 0.316 µM
[4] = second compound 0.1 µM, first compound 1 µM
[5] = second compound 0.1 µM, first compound 3.16 µM
[6] = second compound 0.1 µM, first compound 10 µM
[7] = second compound 0.316 µM, first compound 0.0316 µM
[8] = second compound 0.316 µM, first compound 0.1 µM
[9] = second compound 0.316 µM, first compound 0.316 µM
[10] = second compound 0.316 µM, first compound 1 µM
[11] = second compound 0.316 µM, first compound 3.16 µM
[12] = second compound 0.316 µM, first compound 10 µM
[13] = second compound 1 µM, first compound 0.0316 µM
[14] = second compound 1 µM, first compound 0.1 µM
[15] = second compound 1 µM, first compound 0.316 µM
[16] = second compound 1 µM, first compound 1 µM
[17] = second compound 1 µM, first compound 3.16 µM
[18] = second compound 1 µM, first compound 10 µM
[19] = second compound 3.16 µM, first compound 0.0316 µM
[20] = second compound 3.16 µM, first compound 0.1 µM
[21] = second compound 3.16 µM, first compound 0.316 µM
[22] = second compound 3.16 µM, first compound 1 µM
[23] = second compound 3.16 µM, first compound 3.16 µM
[24] = second compound 3.16 µM, first compound 10 µM
[25] = second compound 10 µM, first compound 0.0316 µM
[26] = second compound 10 µM, first compound 0.1 µM
[27] = second compound 10 µM, first compound 0.316 µM
[28] = second compound 10 µM, first compound 1 µM
[29] = second compound 10 µM, first compound 3.16 µM
[30] = second compound 10 µM, first compound 10 µM
[31] = second compound 0.1 µM, first compound 0.000316 µM
[32] = second compound 0.1 µM, first compound 0.001 µM
[33] = second compound 0.1 µM, first compound 0.00316 µM
[34] = second compound 0.1 µM, first compound 0.01 µM
[35] = second compound 0.316 µM, first compound 0.000316 µM
[36] = second compound 0.316 µM, first compound 0.001 µM
[37] = second compound 0.316 µM, first compound 0.00316 µM
[38] = second compound 0.316 µM, first compound 0.01 µM
[39] = second compound 1 µM, first compound 0.000316 µM
[40] = second compound 1 µM, first compound 0.001 µM
[41] = second compound 1 µM, first compound 0.00316 µM
[42] = second compound 1 µM, first compound 0.01 µM
[43] = second compound 3.16 µM, first compound 0.000316 µM
[44] = second compound 3.16 µM, first compound 0.001 µM
[45] = second compound 3.16 µM, first compound 0.00316 µM
[46] = second compound 3.16 µM, first compound 0.01 µM
[47] = second compound 10 µM, first compound 0.000316 µM
[48] = second compound 10 µM, first compound 0.001 µM
[49] = second compound 10 µM, first compound 0.00316 µM
[50] = second compound 10 µM, first compound 0.01 µM
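Further: spheroids exposed to compounds for 7 days.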
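Wherever viability, T/C is given: 100% = DMSO vehicle control viability.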

Row | SMILES | IC50 (second compound 0.1 µM) | IC50 (second compound 0.316 µM) | IC50 (second compound 1 µM) | IC50 (second compound 3.16 µM) | IC50 (second compound 10 µM) | viability, T/C [1] | viability, T/C [2] | viability, T/C [3] | viability, T/C [4] | viability, T/C [7] | viability, T/C [8] | viability, T/C [9] | viability, T/C [10] | viability, T/C [13] | viability, T/C [14] | viability, T/C [15] | viability, T/C [19] | viability, T/C [20] | viability, T/C [25] | viability, T/C [26] | other results
1 | CC(C)NCC(C(=O)N1CCN(c2ncnc3c2C(C)CC3O)CC1)c1ccc(Cl)cc1 (stereo not given) + COc1cc2nc(C)nc(NC(C)c3cc(N)cc(C(F)(F)F)c3)c2cc1OC1CCOC1 | 2500 nM | 2450 nM | 1740 nM | 1880 nM | < 31.6 nM | 122% | 113% | 148% | 97.1% | 103% | 129% | 122% | 130% | 114% | 128% | 151% | 111% | 125% | 22.4% | 5.84% | viability, T/C [5]: 39.4%; viability, T/C [6]: 11.2%; viability, T/C [11]: 29.7%; viability, T/C [12]: 8.59%; viability, T/C [16]: 75.7%; viability, T/C [17]: 37.4%; viability, T/C [18]: 7.58%; viability, T/C [21]: 104%; viability, T/C [22]: 97.7%; viability, T/C [23]: 10.9%; viability, T/C [24]: 5.94%; viability, T/C [27]: 3.69%; viability, T/C [28]: 1.56%; viability, T/C [29]: 2.14%; viability, T/C [30]: 3.53%
2 | CC(C)n1nc(-c2ccc3oc(N)nc3c2)c2c(N)ncnc21 + COc1cc2nc(C)nc(NC(C)c3cc(N)cc(C(F)(F)F)c3)c2cc1OC1CCOC1 | > 100 nM | > 100 nM | > 100 nM | > 100 nM | < 0.316 nM | 79% | 99.4% | – | – | 84% | 81.7% | – | – | 82.8% | 75.2% | – | 82.2% | 81.5% | 11.2% | 3.11% | viability, T/C [31]: 59.7%; viability, T/C [32]: 93.1%; viability, T/C [33]: 125%; viability, T/C [34]: 154%; viability, T/C [35]: 97.1%; viability, T/C [36]: 99%; viability, T/C [37]: 116%; viability, T/C [38]: 137%; viability, T/C [39]: 100%; viability, T/C [40]: 103%; viability, T/C [41]: 123%; viability, T/C [42]: 131%; viability, T/C [43]: 115%; viability, T/C [44]: 109%; viability, T/C [45]: 121%; viability, T/C [46]: 63.7%; viability, T/C [47]: 6.15%; viability, T/C [48]: 2.53%; viability, T/C [49]: 15.6%; viability, T/C [50]: 12.3%
3 | CC1(C)CCC(CN2CCN(c3ccc(C(=O)NS(=O)(=O)c4ccc(NCC5CCOCC5)c([N+](=O)[O-])c4)c(Oc4cnc5[nH]ccc5c4)c3)CC2)=C(c2ccc(Cl)cc2)C1 + COc1cc2nc(C)nc(NC(C)c3cc(N)cc(C(F)(F)F)c3)c2cc1OC1CCOC1 | 2080 nM | 1940 nM | 1990 nM | 2210 nM | 31.6 nM | 94.7% | 86.3% | 107% | 111% | 99.2% | 94.8% | 90.6% | 91.5% | 118% | 96% | 114% | 139% | 119% | 14.3% | 48.2% | viability, T/C [5]: 21.4%; viability, T/C [6]: 5.44%; viability, T/C [11]: 19.7%; viability, T/C [12]: 6.45%; viability, T/C [16]: 106%; viability, T/C [17]: 12.3%; viability, T/C [18]: 3.36%; viability, T/C [21]: 130%; viability, T/C [22]: 180%; viability, T/C [23]: 8.21%; viability, T/C [24]: 3.86%; viability, T/C [27]: 68.2%; viability, T/C [28]: 59.6%; viability, T/C [29]: 1.84%; viability, T/C [30]: 0.72%
4 | CCN1CCN(Cc2ccc(Nc3ncc(F)c(-c4cc(F)c5nc(C)n(C(C)C)c5c4)n3)nc2)CC1 + COc1cc2nc(C)nc(NC(C)c3cc(N)cc(C(F)(F)F)c3)c2cc1OC1CCOC1 | > 1000 nM | > 1000 nM | > 1000 nM | > 1000 nM | 31.9 nM | 121% | 170% | 129% | 183% | 111% | 132% | 172% | 161% | 104% | 152% | 179% | 161% | 158% | 38.3% | 31.5% | viability, T/C [33]: 99.6%; viability, T/C [34]: 111%; viability, T/C [37]: 99.3%; viability, T/C [38]: 109%; viability, T/C [41]: 103%; viability, T/C [42]: 109%; viability, T/C [16]: 92.7%; viability, T/C [45]: 118%; viability, T/C [46]: 142%; viability, T/C [21]: 171%; viability, T/C [22]: 50.1%; viability, T/C [49]: 82.9%; viability, T/C [50]: 87.8%; viability, T/C [27]: 5.53%; viability, T/C [28]: 1.46%
5 | CCNC(=O)CC1N=C(c2ccc(Cl)cc2)c2cc(OC)ccc2-n2c(C)nnc21 (stereo not given) + COc1cc2nc(C)nc(NC(C)c3cc(N)cc(C(F)(F)F)c3)c2cc1OC1CCOC1 | > 10000 nM | > 10000 nM | > 10000 nM | 2460 nM | 55.6 nM | 97.2% | 119% | 104% | 80.3% | 97.6% | 111% | 98.2% | 75.2% | 101% | 109% | 118% | 131% | 97.6% | 77.8% | 19% | viability, T/C [5]: 73.4%; viability, T/C [6]: 69.1%; viability, T/C [11]: 59.9%; viability, T/C [12]: 69.1%; viability, T/C [16]: 77.1%; viability, T/C [17]: 98.8%; viability, T/C [18]: 70.8%; viability, T/C [21]: 114%; viability, T/C [22]: 71.7%; viability, T/C [23]: 41%; viability, T/C [24]: 47%; viability, T/C [27]: 17.4%; viability, T/C [28]: 8.42%; viability, T/C [29]: 13.1%; viability, T/C [30]: 1.45%
6 | Cn1ncnc1[C@H]1c2n[nH]c(=O)c3cc(F)cc(c23)N[C@@H]1c1ccc(F)cc1 + COc1cc2nc(C)nc(NC(C)c3cc(N)cc(C(F)(F)F)c3)c2cc1OC1CCOC1 | > 100 nM | > 100 nM | > 100 nM | > 100 nM | < 0.316 nM | 83.9% | 70.9% | – | – | 65.3% | 64.4% | – | – | 84.2% | 92.1% | – | 105% | 89.3% | 11.8% | 7.86% | viability, T/C [31]: 92.2%; viability, T/C [32]: 89.3%; viability, T/C [33]: 90.6%; viability, T/C [34]: 76.7%; viability, T/C [35]: 86.3%; viability, T/C [36]: 94.4%; viability, T/C [37]: 82.4%; viability, T/C [38]: 101%; viability, T/C [39]: 86.3%; viability, T/C [40]: 99.4%; viability, T/C [41]: 107%; viability, T/C [42]: 79.2%; viability, T/C [43]: 116%; viability, T/C [44]: 103%; viability, T/C [45]: 114%; viability, T/C [46]: 94.7%; viability, T/C [47]: 11.3%; viability, T/C [48]: 10.4%; viability, T/C [49]: 17.1%; viability, T/C [50]: 21.1%
